Measurements from US7129392B2, “Materials and methods for increasing isoprenoid production in cells” (priority 2000, dated 2006).

Tests used:
[1] = molecular target: DXP reductoisomerase (Escherichia coli, UniProt P45568); conditions: Kuzuyama et al., 1998; cited from earlier work
[2] = tested on: Nicotiana tabacum var. ‘Xanthi NC’ leaf sections; assay: Toxicity of fosmidomycin to tobacco grown on medium; conditions: after three weeks of growth on medium
[3] = tested on: E. coli TOP10 F′; assay: Growth of E. coli control cells on medium containing fosmidomycin; assay type: cell-based; conditions: TOP10 F′ transformed with parent vectors; LB or LB/IPTG with fosmidomycin 20 μg/ml
Experimental: Single colonies of TOP10 F′/pHKO2 (designated strain HK6), TOP10 F′/pHKO3 (designated strain HK7), and TOP10 F′/pHKO9 (designated strain HK8), are used to individually inoculate 4 ml LB/amp cultures and grown overnight at 30° C., 225 rpm. The HK6 and HK7 cultures are serially diluted 10,000 to 100,000-fold and plated on LB containing fosmidomycin (20 μg/ml).

[4] = especially in combination with other herbicides; Kamuro et al.; cited from earlier work

DXP reductoisomerase, sequence (P45568 whole entry): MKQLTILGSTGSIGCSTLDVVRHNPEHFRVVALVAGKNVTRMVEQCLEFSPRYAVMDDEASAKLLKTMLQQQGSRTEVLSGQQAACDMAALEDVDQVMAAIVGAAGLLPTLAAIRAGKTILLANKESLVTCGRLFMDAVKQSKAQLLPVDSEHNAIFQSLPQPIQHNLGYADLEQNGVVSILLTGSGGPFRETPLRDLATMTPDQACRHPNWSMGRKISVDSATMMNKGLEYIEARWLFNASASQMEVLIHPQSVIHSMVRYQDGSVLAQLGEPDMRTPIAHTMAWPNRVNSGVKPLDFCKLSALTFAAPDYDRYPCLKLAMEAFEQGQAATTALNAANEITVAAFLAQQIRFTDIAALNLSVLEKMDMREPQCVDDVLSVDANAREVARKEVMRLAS

O=CN(O)CCCP(=O)(O)O [fosmidomycin]
inhibition of the enzyme DXP reductoisomerase [1]: specific inhibitor
fosmidomycin concentration at which toxicity is evident in tobacco [2]: at least 500 micromolar
growth of E. coli control cells on medium containing fosmidomycin [3]: unable to grow
herbicidal activity [4]: significant herbicidal activity
